Experimental data published in ChEMBL document CHEMBL4507284, “Data for DCP probe BI-1230” (2021).

How the values were obtained:
[1] = molecular target: Ephrin type-A receptor 5 (Homo sapiens) (UniProt P54756); details: Compound concentration 1000.0 nM
[2] = molecular target: Mitogen-activated protein kinase 6 (Homo sapiens) (UniProt Q16659); details: Compound concentration 1000.0 nM
[3] = molecular target: Cyclin-dependent kinase 4 (Homo sapiens) (UniProt P11802); details: Compound concentration 1000.0 nM
Sequence of Cyclin-dependent kinase 4 (Homo sapiens) (P11802 whole entry): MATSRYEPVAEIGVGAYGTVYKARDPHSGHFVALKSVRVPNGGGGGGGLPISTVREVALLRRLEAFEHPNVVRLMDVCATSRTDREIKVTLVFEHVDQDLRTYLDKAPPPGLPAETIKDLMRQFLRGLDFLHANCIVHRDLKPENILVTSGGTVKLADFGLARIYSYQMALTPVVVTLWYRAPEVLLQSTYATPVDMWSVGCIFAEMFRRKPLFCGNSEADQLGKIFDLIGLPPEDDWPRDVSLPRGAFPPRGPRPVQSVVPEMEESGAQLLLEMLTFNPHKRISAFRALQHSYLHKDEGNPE

[4] = molecular target: Receptor-interacting serine/threonine-protein kinase 4 (Homo sapiens) (UniProt P57078); details: Compound concentration 1000.0 nM
[5] = molecular target: Receptor tyrosine-protein kinase erbB-3 (Homo sapiens) (UniProt P21860); details: Compound concentration 1000.0 nM
[6] = molecular target: Mitogen-activated protein kinase kinase kinase 7 (Homo sapiens) (UniProt O43318); details: Compound concentration 1000.0 nM
[7] = molecular target: Phosphatidylinositol 4,5-bisphosphate 3-kinase catalytic subunit beta isoform (Homo sapiens) (UniProt P42338); details: Compound concentration 1000.0 nM
Sequence of Phosphatidylinositol 4,5-bisphosphate 3-kinase catalytic subunit beta isoform (Homo sapiens) (P42338 whole entry, looked up, canonical isoform): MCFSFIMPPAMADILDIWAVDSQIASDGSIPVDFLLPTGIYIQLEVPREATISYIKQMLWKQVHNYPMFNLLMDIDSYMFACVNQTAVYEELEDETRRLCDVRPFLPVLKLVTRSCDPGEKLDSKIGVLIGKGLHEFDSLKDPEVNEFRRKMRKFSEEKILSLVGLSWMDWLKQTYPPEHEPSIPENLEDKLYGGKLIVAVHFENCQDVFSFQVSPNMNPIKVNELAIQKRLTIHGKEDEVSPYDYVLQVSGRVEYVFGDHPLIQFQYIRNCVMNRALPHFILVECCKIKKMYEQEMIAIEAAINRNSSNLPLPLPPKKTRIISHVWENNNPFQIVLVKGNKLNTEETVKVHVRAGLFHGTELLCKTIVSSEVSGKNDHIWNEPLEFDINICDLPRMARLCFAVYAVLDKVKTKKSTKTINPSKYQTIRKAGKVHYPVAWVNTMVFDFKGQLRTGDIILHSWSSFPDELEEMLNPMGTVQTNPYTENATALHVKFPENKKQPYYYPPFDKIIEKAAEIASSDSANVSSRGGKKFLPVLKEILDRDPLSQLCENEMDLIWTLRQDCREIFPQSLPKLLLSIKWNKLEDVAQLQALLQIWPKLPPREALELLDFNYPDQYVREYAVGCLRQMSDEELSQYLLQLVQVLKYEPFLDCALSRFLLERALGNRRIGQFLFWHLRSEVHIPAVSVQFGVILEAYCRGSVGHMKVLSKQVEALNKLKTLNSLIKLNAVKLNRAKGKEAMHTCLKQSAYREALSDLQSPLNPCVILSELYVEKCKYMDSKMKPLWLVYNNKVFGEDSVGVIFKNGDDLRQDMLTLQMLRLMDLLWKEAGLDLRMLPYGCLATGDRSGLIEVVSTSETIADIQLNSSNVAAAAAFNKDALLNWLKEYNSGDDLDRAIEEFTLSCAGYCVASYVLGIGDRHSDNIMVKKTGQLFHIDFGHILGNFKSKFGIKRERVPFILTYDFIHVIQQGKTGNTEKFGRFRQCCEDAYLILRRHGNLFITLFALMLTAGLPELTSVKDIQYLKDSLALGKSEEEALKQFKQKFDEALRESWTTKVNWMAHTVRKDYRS

[8] = molecular target: Testis-specific serine/threonine-protein kinase 1 (Homo sapiens) (UniProt Q9BXA7); details: Compound concentration 1000.0 nM
[9] = molecular target: Myosin-IIIa (Homo sapiens) (UniProt Q8NEV4); details: Compound concentration 1000.0 nM
[10] = molecular target: Cyclin-dependent kinase-like 5 (Homo sapiens) (UniProt O76039); details: Compound concentration 1000.0 nM
[11] = test system: Epidermal growth factor receptor (Homo sapiens), P00533 [T790M]; details: Compound concentration 1000.0 nM
[12] = molecular target: Mitogen-activated protein kinase kinase kinase 20 (Homo sapiens) (UniProt Q9NYL2); details: Compound concentration 1000.0 nM
[13] = molecular target: Rhodopsin kinase GRK1 (Homo sapiens) (UniProt Q15835); details: Compound concentration 1000.0 nM
[14] = molecular target: 5-hydroxytryptamine receptor 2B (Homo sapiens) (UniProt P41595); details: Compound concentration 10.0 uM
[15] = molecular target: Cyclin-dependent kinase 3 (Homo sapiens) (UniProt Q00526); details: Compound concentration 1000.0 nM
[16] = molecular target: Hepatocyte growth factor receptor (Homo sapiens) (UniProt P08581); details: Compound concentration 1000.0 nM
[17] = test system: Phosphatidylinositol 4,5-bisphosphate 3-kinase catalytic subunit alpha isoform (Homo sapiens), P42336 [H1047L]; details: Compound concentration 1000.0 nM
[18] = molecular target: Alpha-1A adrenergic receptor (Homo sapiens) (UniProt P35348); details: Compound concentration 10.0 uM
[19] = molecular target: Cyclin-dependent kinase 2 homolog (Plasmodium falciparum (isolate 3D7)) (UniProt P61075); details: Compound concentration 1000.0 nM
[20] = molecular target: Casein kinase I isoform alpha (Homo sapiens) (UniProt P48729); details: Compound concentration 1000.0 nM
[21] = molecular target: Death-associated protein kinase 2 (Homo sapiens) (UniProt Q9UIK4); details: Compound concentration 1000.0 nM
[22] = molecular target: Cyclin-dependent kinase 8 (Homo sapiens) (UniProt P49336); details: Compound concentration 1000.0 nM
[23] = test system: Phosphatidylinositol 4,5-bisphosphate 3-kinase catalytic subunit alpha isoform (Homo sapiens), P42336 [Q546K]; details: Compound concentration 1000.0 nM
[24] = molecular target: Transient receptor potential cation channel subfamily M member 6 (Homo sapiens) (UniProt Q9BX84); details: Compound concentration 1000.0 nM
[25] = molecular target: Ribosomal protein S6 kinase alpha-2 (Homo sapiens) (UniProt Q15349); details: Compound concentration 1000.0 nM
[26] = molecular target: Serine/threonine-protein kinase BRSK1 (Homo sapiens) (UniProt Q8TDC3); details: Compound concentration 1000.0 nM
[27] = molecular target: Calcium/calmodulin-dependent protein kinase type 1 (Homo sapiens) (UniProt Q14012); details: Compound concentration 1000.0 nM
[28] = molecular target: Serine/threonine-protein kinase PLK4 (Homo sapiens) (UniProt O00444); details: Compound concentration 1000.0 nM
[29] = test system: Tyrosine-protein kinase ABL1 (Homo sapiens), P00519 [M351T]; details: Compound concentration 1000.0 nM
[30] = molecular target: Uncharacterized serine/threonine-protein kinase SBK3 (Homo sapiens) (UniProt P0C264); details: Compound concentration 1000.0 nM
Sequence of Uncharacterized serine/threonine-protein kinase SBK3 (Homo sapiens) (P0C264 whole entry, canonical isoform): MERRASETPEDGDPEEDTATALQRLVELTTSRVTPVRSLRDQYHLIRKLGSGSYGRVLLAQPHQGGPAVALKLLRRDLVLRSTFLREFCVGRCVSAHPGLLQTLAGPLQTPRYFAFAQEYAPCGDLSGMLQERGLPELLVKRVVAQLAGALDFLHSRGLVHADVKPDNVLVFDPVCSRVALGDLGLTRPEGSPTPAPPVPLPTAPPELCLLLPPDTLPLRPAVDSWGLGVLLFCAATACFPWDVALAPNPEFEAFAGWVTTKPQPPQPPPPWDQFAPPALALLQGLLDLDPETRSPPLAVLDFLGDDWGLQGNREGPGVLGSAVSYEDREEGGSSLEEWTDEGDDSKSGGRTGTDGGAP

[31] = molecular target: Casein kinase I isoform gamma-3 (Homo sapiens) (UniProt Q9Y6M4); details: Compound concentration 1000.0 nM
[32] = molecular target: Serine/threonine-protein kinase BRSK2 (Homo sapiens) (UniProt Q8IWQ3); details: Compound concentration 1000.0 nM
[33] = molecular target: Activin receptor type-1 (Homo sapiens) (UniProt Q04771); details: Compound concentration 1000.0 nM
[34] = molecular target: Tyrosine-protein kinase SYK (Homo sapiens) (UniProt P43405); details: Compound concentration 1000.0 nM
[35] = molecular target: Serine/threonine-protein kinase 36 (Homo sapiens) (UniProt Q9NRP7); details: Compound concentration 1000.0 nM
Sequence of Serine/threonine-protein kinase 36 (Homo sapiens) (Q9NRP7 whole entry): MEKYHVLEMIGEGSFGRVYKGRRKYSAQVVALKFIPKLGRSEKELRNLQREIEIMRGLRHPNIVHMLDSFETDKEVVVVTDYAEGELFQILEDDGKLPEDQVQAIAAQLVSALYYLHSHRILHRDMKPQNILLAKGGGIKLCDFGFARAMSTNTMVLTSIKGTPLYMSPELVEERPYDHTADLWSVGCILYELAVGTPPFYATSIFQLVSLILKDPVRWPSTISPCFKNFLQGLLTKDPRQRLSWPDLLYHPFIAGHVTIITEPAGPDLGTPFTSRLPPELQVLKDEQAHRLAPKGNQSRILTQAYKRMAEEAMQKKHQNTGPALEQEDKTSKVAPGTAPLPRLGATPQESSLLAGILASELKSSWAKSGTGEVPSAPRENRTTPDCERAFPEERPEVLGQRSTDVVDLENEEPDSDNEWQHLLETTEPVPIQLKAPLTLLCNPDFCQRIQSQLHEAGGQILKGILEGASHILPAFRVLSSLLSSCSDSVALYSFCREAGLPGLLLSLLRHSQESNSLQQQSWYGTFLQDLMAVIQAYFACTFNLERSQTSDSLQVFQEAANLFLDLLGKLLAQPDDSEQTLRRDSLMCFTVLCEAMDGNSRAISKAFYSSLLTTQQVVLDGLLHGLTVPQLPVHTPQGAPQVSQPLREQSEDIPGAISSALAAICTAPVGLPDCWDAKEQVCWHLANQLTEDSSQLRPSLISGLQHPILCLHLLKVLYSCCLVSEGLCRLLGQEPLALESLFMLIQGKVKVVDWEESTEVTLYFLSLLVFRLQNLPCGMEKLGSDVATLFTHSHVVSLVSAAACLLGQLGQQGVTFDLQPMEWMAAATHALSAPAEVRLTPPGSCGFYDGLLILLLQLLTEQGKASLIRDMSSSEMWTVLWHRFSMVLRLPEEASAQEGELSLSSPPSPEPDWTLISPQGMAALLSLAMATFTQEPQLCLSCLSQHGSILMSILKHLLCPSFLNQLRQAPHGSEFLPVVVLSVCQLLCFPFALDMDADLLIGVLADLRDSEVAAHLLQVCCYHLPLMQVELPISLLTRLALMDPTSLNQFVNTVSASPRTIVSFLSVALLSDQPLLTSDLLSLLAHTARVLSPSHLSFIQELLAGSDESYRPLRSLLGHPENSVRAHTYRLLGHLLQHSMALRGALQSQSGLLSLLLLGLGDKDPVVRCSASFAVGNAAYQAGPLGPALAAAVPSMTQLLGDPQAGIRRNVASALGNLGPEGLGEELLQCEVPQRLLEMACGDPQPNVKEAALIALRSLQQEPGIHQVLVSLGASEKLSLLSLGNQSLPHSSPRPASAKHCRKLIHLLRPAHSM

[36] = molecular target: Phosphatidylinositol 4-phosphate 5-kinase type-1 alpha (Homo sapiens) (UniProt Q99755); details: Compound concentration 1000.0 nM
[37] = molecular target: Cyclin-dependent kinase 4 (Homo sapiens) (UniProt P11802); details: Compound concentration 1000.0 nM; remark: listed apart in the source
[38] = molecular target: Serine/threonine-protein kinase B-raf (Homo sapiens) (UniProt P15056); details: Compound concentration 1000.0 nM
[39] = molecular target: Protein kinase C delta type (Homo sapiens) (UniProt Q05655); details: Compound concentration 1000.0 nM
[40] = molecular target: Protein-tyrosine kinase 2-beta (Homo sapiens) (UniProt Q14289); details: Compound concentration 1000.0 nM
[41] = molecular target: Histamine H2 receptor (Homo sapiens) (UniProt P25021); details: Compound concentration 10.0 uM
[42] = molecular target: Serine/threonine-protein kinase Chk1 (Homo sapiens) (UniProt O14757); details: Compound concentration 1000.0 nM
[43] = test system: Phosphatidylinositol 4,5-bisphosphate 3-kinase catalytic subunit alpha isoform (Homo sapiens), P42336 [H1047Y]; details: Compound concentration 1000.0 nM
Sequence of Phosphatidylinositol 4,5-bisphosphate 3-kinase catalytic subunit alpha isoform (Homo sapiens), P42336 [H1047Y] (P42336 whole entry H1047Y, canonical isoform): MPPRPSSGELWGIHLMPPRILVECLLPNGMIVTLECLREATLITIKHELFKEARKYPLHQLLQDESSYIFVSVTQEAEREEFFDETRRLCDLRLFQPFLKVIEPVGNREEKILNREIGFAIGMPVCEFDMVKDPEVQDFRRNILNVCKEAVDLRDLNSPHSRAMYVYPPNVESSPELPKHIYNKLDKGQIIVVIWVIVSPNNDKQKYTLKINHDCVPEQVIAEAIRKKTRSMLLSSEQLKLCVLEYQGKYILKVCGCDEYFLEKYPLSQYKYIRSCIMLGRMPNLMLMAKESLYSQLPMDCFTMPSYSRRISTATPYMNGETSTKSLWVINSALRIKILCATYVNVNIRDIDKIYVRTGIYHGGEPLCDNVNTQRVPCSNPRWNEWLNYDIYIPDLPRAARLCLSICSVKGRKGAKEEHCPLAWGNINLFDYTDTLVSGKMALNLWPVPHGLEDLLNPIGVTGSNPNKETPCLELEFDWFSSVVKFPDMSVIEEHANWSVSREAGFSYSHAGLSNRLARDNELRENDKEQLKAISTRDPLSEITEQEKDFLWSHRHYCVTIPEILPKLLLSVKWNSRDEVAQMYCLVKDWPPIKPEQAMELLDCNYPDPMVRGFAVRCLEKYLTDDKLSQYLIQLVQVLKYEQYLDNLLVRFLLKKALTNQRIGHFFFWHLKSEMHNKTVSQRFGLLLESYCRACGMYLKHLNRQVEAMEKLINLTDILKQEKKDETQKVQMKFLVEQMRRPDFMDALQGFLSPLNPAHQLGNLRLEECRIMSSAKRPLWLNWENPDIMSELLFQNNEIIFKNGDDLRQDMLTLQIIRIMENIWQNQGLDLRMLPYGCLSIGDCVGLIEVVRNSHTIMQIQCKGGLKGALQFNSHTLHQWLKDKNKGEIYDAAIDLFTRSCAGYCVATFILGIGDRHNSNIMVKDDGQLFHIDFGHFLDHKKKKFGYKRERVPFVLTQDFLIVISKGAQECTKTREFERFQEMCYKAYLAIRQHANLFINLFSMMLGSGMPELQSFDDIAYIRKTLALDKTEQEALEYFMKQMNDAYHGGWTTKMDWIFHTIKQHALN

[44] = molecular target: Serine/threonine-protein kinase VRK2 (Homo sapiens) (UniProt Q86Y07); details: Compound concentration 1000.0 nM
[45] = test system: Tyrosine-protein kinase ABL1 (Homo sapiens), P00519 [F317I]; details: Compound concentration 1000.0 nM

Sequence of Mitogen-activated protein kinase 6 (Homo sapiens) (Q16659 whole entry): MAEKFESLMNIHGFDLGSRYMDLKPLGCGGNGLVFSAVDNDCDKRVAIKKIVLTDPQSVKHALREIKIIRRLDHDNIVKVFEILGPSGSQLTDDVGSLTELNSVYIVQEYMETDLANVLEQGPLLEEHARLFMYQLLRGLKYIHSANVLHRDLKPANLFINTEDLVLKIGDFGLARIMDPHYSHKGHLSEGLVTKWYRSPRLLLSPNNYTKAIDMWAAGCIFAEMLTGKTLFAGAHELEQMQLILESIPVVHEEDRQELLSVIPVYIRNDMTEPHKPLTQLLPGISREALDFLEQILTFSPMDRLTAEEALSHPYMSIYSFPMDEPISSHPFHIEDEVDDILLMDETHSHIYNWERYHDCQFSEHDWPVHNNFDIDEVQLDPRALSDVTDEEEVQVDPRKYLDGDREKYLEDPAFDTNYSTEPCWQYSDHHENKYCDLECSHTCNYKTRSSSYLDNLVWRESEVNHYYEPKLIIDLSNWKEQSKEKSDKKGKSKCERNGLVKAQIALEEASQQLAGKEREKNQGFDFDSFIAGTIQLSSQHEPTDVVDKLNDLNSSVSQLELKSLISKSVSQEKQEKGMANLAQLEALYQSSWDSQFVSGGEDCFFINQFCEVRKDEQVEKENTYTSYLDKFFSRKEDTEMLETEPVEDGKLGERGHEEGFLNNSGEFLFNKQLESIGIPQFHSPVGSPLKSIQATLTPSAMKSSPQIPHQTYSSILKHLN

COc1ccc2c(O[C@@H]3C[C@H]4C(=O)N[C@]5(C(=O)O)CC5/C=C\CCCCC[C@H](NC(=O)OC5CCCC5)C(=O)N4C3)cc(-c3csc(NC(=O)C(C)C)n3)nc2c1C (stereo not given in full) [BI 1230]
inactive: residual activity [1] 97% | residual activity [2] 93% | residual activity [3] 88% | residual activity [4] 65% | residual activity [5] 88% | residual activity [6] 67% | residual activity [7] 62% | residual activity [8] 70% | residual activity [9] 100% | residual activity [10] 77% | residual activity [11] 85% | residual activity [12] 83% | residual activity [13] 100% | inhibition [14] 0.15% | residual activity [15] 100% | residual activity [16] 99% | residual activity [17] 79% | inhibition [18] 1.41% | residual activity [19] 83% | residual activity [20] 68% | residual activity [21] 100% | residual activity [22] 68% | residual activity [23] 70% | residual activity [24] 100% | residual activity [25] 100% | residual activity [26] 85% | residual activity [27] 100% | residual activity [28] 77% | residual activity [29] 90% | residual activity [30] 99% | residual activity [31] 100% | residual activity [32] 100% | residual activity [33] 100% | residual activity [34] 100% | residual activity [35] 93% | residual activity [36] 98% | residual activity [37] 74% | residual activity [38] 86% | residual activity [39] 84% | residual activity [40] 100% | inhibition [41] 39.4% | residual activity [42] 100% | residual activity [43] 100% | residual activity [44] 79% | residual activity [45] 90%

O=C(N[C@H]1CCCCC/C=C\C2C[C@@]2(C(=O)O)NC(=O)[C@@H]2C[C@@H](Oc3ccncc3)CN2C1=O)OC1CCCC1 (stereo not given in full) [BI 1675]
inactive: residual activity [1] 100% | residual activity [2] 92% | residual activity [3] 89% | residual activity [4] 94% | residual activity [5] 84% | residual activity [6] 77% | residual activity [7] 100% | residual activity [8] 77% | residual activity [9] 94% | residual activity [10] 83% | residual activity [11] 91% | residual activity [12] 90% | residual activity [13] 100% | inhibition [14] 1.85% | residual activity [15] 100% | residual activity [16] 60% | residual activity [17] 100% | inhibition [18] 25.7% | residual activity [19] 78% | residual activity [20] 80% | residual activity [21] 100% | residual activity [22] 66% | residual activity [23] 98% | residual activity [24] 98% | residual activity [25] 99% | residual activity [26] 80% | residual activity [27] 87% | residual activity [28] 88% | residual activity [29] 89% | residual activity [30] 79% | residual activity [31] 100% | residual activity [32] 100% | residual activity [33] 100% | residual activity [34] 100% | residual activity [35] 85% | residual activity [36] 99% | residual activity [37] 100% | residual activity [38] 100% | residual activity [39] 100% | residual activity [40] 100% | inhibition [41] 15.6% | residual activity [42] 79% | residual activity [43] 100% | residual activity [44] 100% | residual activity [45] 100%
